The results in this text go back to US8591908B2, “Immunogen for preparation of therapeutic vaccines or drugs for treatment of hepatitis B and the producing method and use thereof” (Institute of Immunology, PLA, priority 2002, dated 2013).

Ends that are not written are not given here. * marks the point of attachment. Palmitoyl = CCCCCCCCCCCCCCCC(=O)*; Lauroyl = CCCCCCCCCCCC(=O)*

For test [1], the system named is HLA-A2+ human PBMC. Put plainly: FIG. 4: IFN-γ secreting CTL cells, ELISPOT. Conditions: 24 h after last stimulation. The class given is cell-based. How it is done:
(§1) FIG. 4 indicated the effect of inducing cytotoxicity. […] Three days after the last stimulation, antigen-specific effector CTL cells were obtained, and their cytotoxic activities were measured by the standard ^51Cr release test and compared. […] Twenty-four hours after the last stimulation to HLA-A2+ human PBMC, the effects of the test drug to induce the proliferating INF-γ secreting CTL cells in peripheral blood lymphocytes were measured in the ELISPOT method and compared.

For test [2], the system named is 2215, E6 and T2 target cells. The experiment in a line: FIG. 4: induced CTL cytotoxicity, 51Cr release test. The class given is cell-based, human. Conditions: 10 ng test drug; E/T 12.5, 25, 50, 100. On the procedure:
as §1

The test system of test [3] is PBMCs from hepatitis B patient. The experiment in a line: Lymphocyte activation (Th1/Th2) of PBMCs from hepatitis B patient. The class given is cell-based, human. Conditions: IL-4, IL-10, IFN-γ in culture supernatants, acute and chronic hepatitis. An excerpt:
Acute and chronic hepatitis blank control groups, acute hepatitis+/test drug group and chronic hepatitis+/test drug group were included to test the Th1/Th2 activation by Endogen kit or EELISPOT method.

Test [4] relates to Balb/c mice. Put plainly: ELISPOT test of induced cytotoxicity in immunized mice. The class given is in vivo. Conditions: IFN-γ ELISPOT of PBMC. An excerpt:
Balb/c mice of 2-3 Months old (both male and female) were divided into 8 groups, and were immunized with the present compound at both postpede palmas once a week for three times at different doses: 0.001 nmol, 0.01 nmol, 0.1 nmol, 0.5 nmol, 1 nmol, 10 nmol, 20 nmol, and 40 nmol respectively. Bloods were taken postorbitally from mice under sterile conditions on the 6th, 12th, 18th and 24th day after the end of immunization respectively and were anticoagulatant-treated. PBMCs were isolated by Ficoll-Hypaque method, and were cultured in RPMI1640 culture media (containing 10% calf serum, and 100μ/ml penicillin-streptomycin) (10^6/ml, 96-well culture plate) in vitro for one day. After they returned to the original growth state, they were used as test cells. ELISPOT 96-well cell culture plate was pre-coated with IFN-γ coating antibody overnight, each well was treated in triplicate. The wells were blocked with RPMI1640 containing 5% calf serum at room temperature for 1 hour. After drying in air, test cells were added (5×10^4 cells/100 μl/well, containing RPMI1640 media, 10% calf serum, 100μ/ml myciline, and 1 μg/ml peptide), wherein the PBMC of mice immunized with melan A27-35 peptide were set as negative control. […] Then the plate was washed again and dried in air, the substrate was added for visualization and the number of spots was counted.

Test [5] relates to PBMCs from acute hepatitis B patient in convalescent phase. Put plainly: Proliferation of lymphocytes in PBMC of acute hepatitis B patient, 3H-TdR. The format is cell-based, human. Conditions: 0.1 μg, 1 μg and 10 μg/ml with IL-2. On the procedure: Anticoagulant peripheral blood was collected aseptically from acute hepatitis B patient in convalescent phase, PBMCs were isolated by conventional Ficoll-Hypaque density gradient centrifugation and were cultured in RPMI1640 cultural media (containing 10% calf serum, 100 u/ml penicillin-streptomycin, L-glutamine) in vitro on 24-well cell culture plate at a concentration of 10^6/ml. Blank control group, test group, and Pre-S (2) control group were included. IL-2 (30 IU/ml) and test drug (0.1 μg/ml, 1 μg/ml, 10 μg/ml) were separately added into the wells. After the cells were cultured for 6 days, IL-2 and the test drug were added at the same doses to stimulate the cells again. Then 3H-TdR (1 uCi/ml) was added and further cultured for 18 hours. The cells were collected and tested by liquid scintillation.

Regarding “CH3(CH2)7CH═CH(CH2)—CO, CH3CH2CH═CHCH2CH═CH(CH2)7CO7KSSQYIKANSKFIGITEGGGDPRVRGLYFPA (not fully specified (N-terminus); printed as CH3(CH2)7CH═CH(CH2)—CO, CH3CH2CH═CHCH2CH═CH(CH2)7CO7KSSQYIKANSKFIGITEGGGDPRVRGLYFPA) [SEQ ID NO:3]”, the “proliferation of IFN-γ secreting cells” value in test [1] was “induce the proliferation of IFN-γ secreting cells in human PBMC in a notable dose-effect dependence relation”. For the same substance, the “CTL effect, lysis of target cells” value in test [2] was “induce the CTL effect in human PBMC, and specifically lyzed and destroyed target cells”. As to “CH3(CH2)10COKSSPADREGGGSLNFLGGTTVSSSDPRVRGLYFPA (Lauroyl-KSSPADREGGGSLNFLGGTTVSSSDPRVRGLYFPA) [SEQ ID NO:50]”, the “conversion of T-lymphocytes into Th1/Th2 type” value in test [3] was “induce the conversion of T-lymphocytes into both Th1 and Th2 types, with the conversion into Th1 type the most obvious”. With “CH3(CH2)14COKSSPADREAAAFLPSDFFPSVGGGDPRVRGLYFPA (Palmitoyl-KSSPADREAAAFLPSDFFPSVGGGDPRVRGLYFPA) [SEQ ID NO:56]”, in test [4], the minimum effective dose amounted to 0.01 nmol. Turning to “CH3(CH2)14COKSSQYIKANSKFIGITEAAALLCLIFLLVGGGDPRVRGLYFPA (Palmitoyl-KSSQYIKANSKFIGITEAAALLCLIFLLVGGGDPRVRGLYFPA) [SEQ ID NO:51]”, the “proliferation of PBMCs” value in test [5] is reported as “stimulated the proliferation of PBMCs from acute hepatitis B patient in convalescent phase in a manner of dose dependence”.
